The nature of test [1]: Antiproliferative activity against human U87 cells assessed as cell growth inhibition after 72 hrs by MTT assay. The format is functional, cell-based, U-87MG ATCC. The following applies: U-87 MG.
The nature of test [2]: Antiproliferative activity against human EC109 cells assessed as cell growth inhibition after 72 hrs by MTT assay. The format is functional, cell-based. The following applies: ECa-109, 72 h.
The nature of test [3]: Antiproliferative activity against human MGC803 cells assessed as cell growth inhibition after 72 hrs by MTT assay. The following applies: MGC-803, 72 h. The format is functional, cell-based.
The subject of test [4] is SH-SY5Y. Kind of test: Antiproliferative activity against human SH-SY5Y cells assessed as cell growth inhibition after 72 hrs by MTT assay. The format is functional, cell-based.
Test [5] relates to MCF7. Kind of test: cells. The following applies: Homo sapiens, MCF7, 72 h.
Description: Antiproliferative activity against human MCF7 cells assessed as cell growth inhibition after 72 hrs by MTT assay

For `C[C@]12CC[C@H](OC(=O)Cn3cc(COc4ccc(C(=O)/C=C/c5ccc(F)c(F)c5)cc4)nn3)CC1=CC[C@@H]1[C@@H]2CC[C@]2(C)C(=O)CC[C@@H]12`, the IC50 in test [1] is > 128 µM; in test [2], > 128 µM; in test [3], > 128 µM; in test [4], 42.1 µM; in test [5] it was 92.6 µM.

In the case of `C[C@]12CC[C@H](OC(=O)Cn3cc(COc4cc(=O)oc5ccccc45)nn3)CC1=CC[C@@H]1[C@@H]2CC[C@]2(C)C(=O)CC[C@@H]12`, the IC50 in test [1] is 40 µM; in test [2], > 128 µM; in test [3] it was > 128 µM; in test [4] it was > 128 µM; in test [5], > 128 µM.

In the case of `C[C@]12CC[C@H](OC(=O)Cn3cc(COc4ccc(Br)cc4)nn3)CC1=CC[C@@H]1[C@@H]2CC[C@]2(C)C(=O)CC[C@@H]12`, the IC50 in test [1] came out at 30.1 µM; in test [2], 21 µM; in test [3], 48.2 µM; in test [4], 22.7 µM; in test [5], 93.2 µM.

Take `C[C@]12CC[C@H](OC(=O)Cn3cc(CN4C(=O)C(=O)c5cccc(Cl)c54)nn3)CC1=CC[C@@H]1[C@@H]2CC[C@]2(C)C(=O)CC[C@@H]12`: the IC50 in test [1] was determined as 20.8 µM; in test [2] it was 84.6 µM; in test [3], 8.74 µM; in test [4] it was 14.6 µM; in test [5], 13.3 µM.

On to `C[C@]12CC[C@H](OC(=O)Cn3cc(CN4C(=O)C(=O)c5cc(Br)ccc54)nn3)CC1=CC[C@@H]1[C@@H]2CC[C@]2(C)C(=O)CC[C@@H]12`, for which the IC50 in test [1] was 39.2 µM; in test [2], 44.1 µM; in test [3], 32.5 µM; in test [4] it was 10.3 µM; in test [5], > 128 µM.

With `Cc1ccc(OCc2cn(CC(=O)O[C@H]3CC[C@@]4(C)C(=CC[C@@H]5[C@@H]4CC[C@]4(C)C(=O)CC[C@@H]54)C3)nn2)cc1`, the IC50 is 18.5 µM in test [1]; 23.9 µM in test [2]; 21.6 µM in test [3]; 26.9 µM in test [4]; 38.6 µM in test [5].

Consider `COc1ccc(NCc2cn(CC(=O)O[C@H]3CC[C@@]4(C)C(=CC[C@@H]5[C@@H]4CC[C@]4(C)C(=O)CC[C@@H]54)C3)nn2)cc1`, for which the IC50 in test [1] worked out at 96.5 µM; in test [2] it was 24.7 µM; in test [3], 11.6 µM; in test [4], 69.8 µM; in test [5], 21.3 µM.

For `C[C@]12CC[C@H](OC(=O)Cn3cc(CN4C(=O)C(=O)c5cc(F)ccc54)nn3)CC1=CC[C@@H]1[C@@H]2CC[C@]2(C)C(=O)CC[C@@H]12`, the concentration for half-maximal inhibition (IC50) is 91.1 µM in test [1]; > 128 µM in test [2]; 58.9 µM in test [3]; 9.25 µM in test [4]; > 128 µM in test [5].

In the case of `C[C@]12CC[C@H](OC(=O)Cn3cc(Cn4cc(F)c(=O)n(Cc5cn(CC(=O)O[C@H]6CC[C@@]7(C)C(=CC[C@@H]8[C@@H]7CC[C@]7(C)C(=O)CC[C@@H]87)C6)nn5)c4=O)nn3)CC1=CC[C@@H]1[C@@H]2CC[C@]2(C)C(=O)CC[C@@H]12`, the IC50 in test [1], in test [2], in test [3], in test [4] and in test [5] was > 128 µM throughout.

On to `C[C@]12CC[C@H](OC(=O)Cn3cc(CNc4ccc(Br)cc4)nn3)CC1=CC[C@@H]1[C@@H]2CC[C@]2(C)C(=O)CC[C@@H]12`, for which the IC50 in test [1] turned out to be 86.7 µM; in test [2], 37.1 µM; in test [3], 19.4 µM; in test [4], 59.4 µM; in test [5] it was 27.6 µM.

On to `C[C@]12CC[C@H](OC(=O)Cn3cc(CN4C(=O)C(=O)c5c(Br)cccc54)nn3)CC1=CC[C@@H]1[C@@H]2CC[C@]2(C)C(=O)CC[C@@H]12`, for which the IC50 is 21.3 µM in test [1]; 78.4 µM in test [2]; 26.4 µM in test [3]; > 128 µM in test [4]; > 128 µM in test [5].

For `O=c1[nH]cc(F)c(=O)[nH]1` [FLUOROURACIL], the IC50 was 5.61 µM in test [1], 3.17 µM in test [2], 1.25 µM in test [3] and 3.26 µM in test [4].

On to `C[C@]12CC[C@H](OC(=O)Cn3cc(COc4ccccc4[N+](=O)[O-])nn3)CC1=CC[C@@H]1[C@@H]2CC[C@]2(C)C(=O)CC[C@@H]12`, for which the IC50 was > 128 µM in test [1]; 49.8 µM in test [2]; 51.3 µM in test [3]; 65 µM in test [4]; 45.1 µM in test [5].

Take `C[C@]12CC[C@H](OC(=O)Cn3cc(COc4ccc(/C=C/C(=O)c5ccccc5)cc4)nn3)CC1=CC[C@@H]1[C@@H]2CC[C@]2(C)C(=O)CC[C@@H]12`: the IC50 was > 128 µM in test [1]; 118 µM in test [2]; > 128 µM in test [3]; 75 µM in test [4]; > 128 µM in test [5].

On to `C[C@]12CC[C@H](OC(=O)Cn3cc(CN4C(=O)C(=O)c5cc(Cl)ccc54)nn3)CC1=CC[C@@H]1[C@@H]2CC[C@]2(C)C(=O)CC[C@@H]12`, for which the IC50 in test [1] was 47.9 µM; in test [2], 61.7 µM; in test [3], 57.8 µM; in test [4], 7.32 µM; in test [5], > 128 µM.

With `C[C@]12CC[C@H](OC(=O)Cn3cc(CN4C(=O)C(=O)c5c(Cl)cccc54)nn3)CC1=CC[C@@H]1[C@@H]2CC[C@]2(C)C(=O)CC[C@@H]12`, the IC50 in test [1] is 33.1 µM; in test [2] it was 124 µM; in test [3], > 128 µM; in test [4], 18.5 µM; in test [5] it was > 128 µM.

On to `C[C@]12CC[C@H](OC(=O)Cn3cc(CN4C(=O)C(=O)c5ccccc54)nn3)CC1=CC[C@@H]1[C@@H]2CC[C@]2(C)C(=O)CC[C@@H]12`, for which the IC50 is 45.6 µM in test [1]; > 128 µM in test [2]; > 128 µM in test [3]; 8.62 µM in test [4]; > 128 µM in test [5].

As for `C[C@]12CC[C@H](OC(=O)Cn3cc(CNc4cccc([N+](=O)[O-])c4)nn3)CC1=CC[C@@H]1[C@@H]2CC[C@]2(C)C(=O)CC[C@@H]12`, the IC50 is > 128 µM in test [1]; 55.4 µM in test [2]; 28.6 µM in test [3]; > 128 µM in test [4]; 45.2 µM in test [5].

Turning to `C[C@]12CC[C@H](OC(=O)Cn3cc(COc4ccc5ccc(=O)oc5c4)nn3)CC1=CC[C@@H]1[C@@H]2CC[C@]2(C)C(=O)CC[C@@H]12`, the IC50 in test [1] was 43.7 µM; in test [2], > 128 µM; in test [3], > 128 µM; in test [4], 54.9 µM; in test [5], > 128 µM.

On to `O=c1c(F)cn(Cc2cn(Cc3ccccc3Cl)nn2)c(=O)n1Cc1cn(Cc2ccccc2Cl)nn1`, for which the IC50 in test [1], in test [2], in test [3], in test [4] and in test [5] was > 128 µM in each case.

As to `C[C@]12CC[C@H](OC(=O)Cn3cc(COc4ccc(C(=O)/C=C/c5ccc(Br)cc5)cc4)nn3)CC1=CC[C@@H]1[C@@H]2CC[C@]2(C)C(=O)CC[C@@H]12`, the IC50 in test [1] is > 128 µM; in test [2], 79.8 µM; in test [3], > 128 µM; in test [4] it was 72.6 µM; in test [5] it was 112 µM.

(Values after ChEMBL document CHEMBL3804830, “Efficient synthesis of new antiproliferative steroidal hybrids using the molecular hybridization approach” (Eur J Med Chem, 2016).)
